Data reported in ChEMBL document CHEMBL1201862, “PubChem BioAssay data set” (2004).
Calls of active or inactive are those of the source.

Tests used:
[1] = target: T1, RNA-binding protein pos-1 (Caenorhabditis elegans, UniProt G5EF15); assay: inhibitors of POS-1/mex-3 RNA binding, dose response, biochemical, fluorescence polarization (AID 1964);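 note: purified POS-1 fused to maltose binding protein made in E. coli; potency of compounds blocking POS-1 binding to fluorescent RNA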
T1 sequence (G5EF15 whole entry): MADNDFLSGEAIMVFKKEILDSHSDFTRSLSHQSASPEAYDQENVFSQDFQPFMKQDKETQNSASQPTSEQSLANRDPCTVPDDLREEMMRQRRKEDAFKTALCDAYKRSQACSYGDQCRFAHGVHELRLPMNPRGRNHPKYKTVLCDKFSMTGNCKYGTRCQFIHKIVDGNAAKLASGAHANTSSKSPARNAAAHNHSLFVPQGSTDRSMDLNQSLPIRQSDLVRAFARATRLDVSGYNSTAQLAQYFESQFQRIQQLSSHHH

[2] = target: T2, Zinc finger protein mex-5 (Caenorhabditis elegans, UniProt Q9XUB2); assay: MEX-5/TCR-2 RNA interaction inhibitors, dose response, biochemical, C. elegans, fluorescence polarization (AID 1960)
T2 sequence (Q9XUB2 whole entry): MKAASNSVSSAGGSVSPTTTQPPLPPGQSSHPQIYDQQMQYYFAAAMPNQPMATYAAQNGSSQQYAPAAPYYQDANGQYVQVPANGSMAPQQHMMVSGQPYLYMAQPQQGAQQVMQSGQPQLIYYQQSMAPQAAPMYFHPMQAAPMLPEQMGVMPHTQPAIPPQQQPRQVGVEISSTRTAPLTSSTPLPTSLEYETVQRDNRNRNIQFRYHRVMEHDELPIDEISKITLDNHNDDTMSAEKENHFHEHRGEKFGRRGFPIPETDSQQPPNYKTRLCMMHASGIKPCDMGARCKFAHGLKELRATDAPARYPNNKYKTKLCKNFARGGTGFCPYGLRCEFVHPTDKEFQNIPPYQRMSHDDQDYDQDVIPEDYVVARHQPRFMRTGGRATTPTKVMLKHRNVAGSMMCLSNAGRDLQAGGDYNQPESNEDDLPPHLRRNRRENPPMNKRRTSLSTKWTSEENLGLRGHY

[3] = target: Luciferin 4-monooxygenase (Photinus pyralis, UniProt P08659); assay: firefly luciferase enzyme inhibitors, dose response, biochemical, luminescence (AID 1891)
[4] = Luminescence Cell-Based Dose Confirmation HTS to Identify Inhibitors of Platelet Dense Granule Release. [Related pubchem assays: 1663 (Primary HTS), 1678 (Summary of Project)]; type: functional
[5] = inhibitors of firefly luciferase expression or activity, dose response, H4 neuroglioma cells, luminescence (AID 1990); type: functional, cell-based
[6] = Luminescence Cell-Based Dose Response HTS to Identify Inhibitors of 5'UTR Stem-Loop Driven Prion Protein mRNA Translation in H4 Neuroglioblastoma Cells. [Related pubchem assays: 1827 (Project Summary), 1813 (Primary HTS)]; type: functional
[7] = inhibitors of SNCA 5'UTR-driven reporter translation, confirmation, H4 neuroglioma cells, luminescence (AID 1988); type: functional, cell-based
Cytochrome P450 2C19 = Cytochrome P450 2C19 (Homo sapiens, UniProt P33261); assay: Cytochrome panel assay with activity outcomes. Panel member name: p450-cyp2c19 Compounds with AC50 equal or less than 10 uM are considered active; type: functional; details: read-out: AC50
Cytochrome P450 1A2 = target: T3, Cytochrome P450 1A2 (Homo sapiens, UniProt P05177);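 note: PubChem cytochrome P450 panel assay, CYP1A2 panel member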
T3 sequence (P05177 whole entry): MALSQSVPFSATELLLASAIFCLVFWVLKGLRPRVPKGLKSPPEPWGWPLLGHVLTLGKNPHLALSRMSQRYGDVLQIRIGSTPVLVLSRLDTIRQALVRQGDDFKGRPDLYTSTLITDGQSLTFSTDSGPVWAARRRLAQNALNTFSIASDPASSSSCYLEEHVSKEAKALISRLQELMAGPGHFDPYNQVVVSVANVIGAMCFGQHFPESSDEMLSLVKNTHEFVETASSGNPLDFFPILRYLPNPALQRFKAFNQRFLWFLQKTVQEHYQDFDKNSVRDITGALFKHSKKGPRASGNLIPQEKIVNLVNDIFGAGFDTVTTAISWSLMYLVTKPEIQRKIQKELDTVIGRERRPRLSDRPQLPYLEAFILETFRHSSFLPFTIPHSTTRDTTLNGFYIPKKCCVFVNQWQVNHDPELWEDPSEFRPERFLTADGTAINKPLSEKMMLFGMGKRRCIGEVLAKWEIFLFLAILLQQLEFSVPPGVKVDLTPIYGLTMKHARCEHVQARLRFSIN

Cytochrome P450 3A4 = Cytochrome P450 3A4 (Homo sapiens, UniProt P08684);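 note: CYP3A4 tested as one member of a cytochrome P450 panel screen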
[8] = system: Streptococcus sp. 'group A'; assay: growth inhibition of control SK(-) GAS strain, dose response, counter-screen for streptokinase expression inhibitor project, luminescence, kanamycin, BacTiterGlo, confirmation (AID 1900); type: functional, organism-based
Streptokinase A = target: T4, Streptokinase A (Streptococcus pyogenes serotype M1, UniProt P10520); assay: S. pyogenes streptokinase expression inhibitors, potency, dose response, plasminogen activation absorbance, OD405 (AID 1914); type: functional, Streptococcus pyogenes M1 GAS;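 note: secreted streptokinase activity via plasminogen activation per viability signal from cell pellet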
T4 sequence (P10520 whole entry): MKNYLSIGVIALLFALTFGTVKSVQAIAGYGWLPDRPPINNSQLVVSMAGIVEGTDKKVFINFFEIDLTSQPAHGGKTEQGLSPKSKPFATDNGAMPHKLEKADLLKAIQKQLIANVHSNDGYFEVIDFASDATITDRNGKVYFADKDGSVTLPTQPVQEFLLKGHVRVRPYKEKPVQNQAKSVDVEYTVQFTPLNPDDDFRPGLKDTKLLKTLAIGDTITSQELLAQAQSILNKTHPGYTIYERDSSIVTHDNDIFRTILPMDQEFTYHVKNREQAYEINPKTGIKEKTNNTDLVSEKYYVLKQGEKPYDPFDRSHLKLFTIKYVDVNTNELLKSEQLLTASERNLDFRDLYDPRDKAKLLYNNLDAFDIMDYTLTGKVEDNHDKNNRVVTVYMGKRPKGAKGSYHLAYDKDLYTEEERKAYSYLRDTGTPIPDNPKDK

[9] = inhibitors of intracellular T. cruzi replication, confirmation, NIH3T3 host cells, beta-gal luminescence (AID 2044); type: functional, cell-based;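 note: intracellular parasites grown in NIH/3T3 mouse fibroblasts as host cells; luminescent beta-galactosidase reporter signal from transgenic T. cruzi replicating inside host cells; inhibitors lower the luminescence signal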
[10] = cytotoxicity toward NIH3T3 fibroblasts, dose response, counter-screen, cell-based, ATP luminescence, mouse fibroblasts (AID 2010); type: functional;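 note: cells exposed to compound for about 90 hours before reading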
Streptococcus = assay: Group A Streptococcus viability loss, dose response, counter-screen for streptokinase expression inhibitor project, luminescence, BacTiterGlo (AID 1915); type: functional, organism-based;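 note: potency for reduction of bacterial viability or growth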
Cytochrome P450 2C9 = Cytochrome P450 2C9 (Homo sapiens, UniProt P11712)
Sequence of Cytochrome P450 2C9 (P11712 whole entry): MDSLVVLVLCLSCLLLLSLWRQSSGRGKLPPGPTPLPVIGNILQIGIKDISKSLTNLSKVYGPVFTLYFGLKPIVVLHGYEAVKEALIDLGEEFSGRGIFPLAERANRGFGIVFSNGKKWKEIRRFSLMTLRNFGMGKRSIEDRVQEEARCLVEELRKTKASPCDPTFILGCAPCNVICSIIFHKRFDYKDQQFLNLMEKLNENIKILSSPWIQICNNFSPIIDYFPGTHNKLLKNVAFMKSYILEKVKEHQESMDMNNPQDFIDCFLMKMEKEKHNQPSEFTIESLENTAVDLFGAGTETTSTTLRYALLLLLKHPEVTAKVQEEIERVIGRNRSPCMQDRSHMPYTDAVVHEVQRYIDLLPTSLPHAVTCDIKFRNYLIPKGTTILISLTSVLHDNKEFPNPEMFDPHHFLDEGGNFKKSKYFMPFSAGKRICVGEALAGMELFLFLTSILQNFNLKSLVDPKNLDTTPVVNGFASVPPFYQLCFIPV

Sequence of Luciferin 4-monooxygenase (P08659 whole entry): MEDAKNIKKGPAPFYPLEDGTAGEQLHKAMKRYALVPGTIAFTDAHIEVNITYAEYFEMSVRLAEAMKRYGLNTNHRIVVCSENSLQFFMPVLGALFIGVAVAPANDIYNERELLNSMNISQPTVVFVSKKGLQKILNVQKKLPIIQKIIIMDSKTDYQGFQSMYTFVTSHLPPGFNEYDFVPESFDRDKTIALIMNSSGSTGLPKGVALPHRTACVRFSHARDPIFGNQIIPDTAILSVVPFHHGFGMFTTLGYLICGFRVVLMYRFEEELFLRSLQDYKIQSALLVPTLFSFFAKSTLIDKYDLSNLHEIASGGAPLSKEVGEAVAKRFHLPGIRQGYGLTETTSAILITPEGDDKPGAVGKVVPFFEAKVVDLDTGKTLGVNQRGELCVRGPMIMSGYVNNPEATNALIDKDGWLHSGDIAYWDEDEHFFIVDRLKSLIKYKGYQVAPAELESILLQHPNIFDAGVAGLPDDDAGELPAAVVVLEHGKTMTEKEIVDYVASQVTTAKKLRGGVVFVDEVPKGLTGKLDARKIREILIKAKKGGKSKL
Sequence of Cytochrome P450 3A4 (P08684 whole entry): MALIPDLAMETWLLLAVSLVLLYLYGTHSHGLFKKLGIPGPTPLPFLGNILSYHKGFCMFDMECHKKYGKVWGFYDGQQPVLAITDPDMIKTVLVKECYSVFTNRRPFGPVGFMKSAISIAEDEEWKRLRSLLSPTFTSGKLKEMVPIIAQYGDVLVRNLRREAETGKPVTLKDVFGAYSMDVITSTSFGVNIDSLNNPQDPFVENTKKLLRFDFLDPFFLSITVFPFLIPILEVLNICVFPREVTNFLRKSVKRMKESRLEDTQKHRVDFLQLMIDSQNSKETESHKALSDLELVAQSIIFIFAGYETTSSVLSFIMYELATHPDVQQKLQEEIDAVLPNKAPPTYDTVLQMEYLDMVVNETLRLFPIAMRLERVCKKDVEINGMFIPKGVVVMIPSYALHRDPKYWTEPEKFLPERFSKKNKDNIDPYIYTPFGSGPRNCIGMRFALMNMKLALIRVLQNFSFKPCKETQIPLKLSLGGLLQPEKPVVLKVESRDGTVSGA
Sequence of Cytochrome P450 2C19 (P33261 whole entry): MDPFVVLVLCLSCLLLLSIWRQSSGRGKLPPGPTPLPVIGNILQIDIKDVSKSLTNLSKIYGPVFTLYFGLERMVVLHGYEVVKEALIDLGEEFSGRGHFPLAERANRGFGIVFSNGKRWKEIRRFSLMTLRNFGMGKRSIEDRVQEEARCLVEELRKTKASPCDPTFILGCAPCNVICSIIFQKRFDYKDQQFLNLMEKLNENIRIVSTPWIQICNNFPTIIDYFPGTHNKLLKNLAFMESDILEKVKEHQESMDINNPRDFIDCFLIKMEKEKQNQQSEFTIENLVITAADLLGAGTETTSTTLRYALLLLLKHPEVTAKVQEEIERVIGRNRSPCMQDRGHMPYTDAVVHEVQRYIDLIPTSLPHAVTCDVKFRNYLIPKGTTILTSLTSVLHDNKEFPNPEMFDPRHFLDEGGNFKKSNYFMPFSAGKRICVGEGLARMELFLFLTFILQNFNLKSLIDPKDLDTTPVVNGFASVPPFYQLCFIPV

N#C/C(=C\N1CCN(Cc2ccc3c(c2)OCO3)CC1)c1nc2ccccc2s1
EC50 [1]: > 300 µM (not active) | EC50 [2]: > 300 µM (not active)

CC(C)CNC(=O)C1Nc2ccccc2C2C=CCC12 (configuration not stated)
EC50 [1]: > 300 µM (not active) | EC50 [2]: > 300 µM (not active)

NC(=O)c1ccc[n+](Cc2ccccc2)c1
EC50 [3]: > 112 µM (not active) | EC50 [4]: > 112 µM (not active)

COc1cc2c3nnc(-c4ccccc4)c-3cn(Cc3ccc(F)cc3)c2cc1OC
EC50 [1]: > 300 µM (not active) | EC50 [2]: > 300 µM (not active)

CCOC(=O)c1cnc2c(OC)cccc2c1N1CC(C)CC(C)C1 (configuration not stated)
EC50 [5]: 13.9 µM (active) | EC50 [6]: > 120 µM (not active) | EC50 [7]: 14.4 µM (active)

CC1CCN(S(=O)(=O)c2ccc3c(c2)N(CC(=O)N(C)Cc2ccco2)C(=O)CO3)CC1
EC50 [5]: > 120 µM (not active) | EC50 [6]: > 120 µM (not active) | EC50 [7]: 21.2 µM (active)

C/C(=N\NC(=O)C1(C)CC1(Br)Br)c1ccc(NC(=O)c2ccc(C)o2)cc1 (configuration not stated)
EC50 [3]: > 112 µM (not active) | EC50 [4]: > 112 µM (not active)

O=C(NC1CC1)C1=C[C@@H](c2coc3ccccc3c2=O)C[C@@H](OCc2ccc(CO)cc2)O1
EC50 [5]: > 120 µM (not active) | EC50 [6]: > 120 µM (not active) | EC50 [7]: > 120 µM (not active)

COc1ccc(C2=Nn3c(nnc3-c3cc(C)[nH]n3)SC2)cc1
EC50 [3]: > 112 µM (not active) | EC50 [4]: > 112 µM (not active)

Cc1c([N+](=O)[O-])c(N)nn1C
EC50 [5]: > 120 µM (not active) | EC50 [6]: > 120 µM (not active) | EC50 [7]: > 120 µM (not active)

Cc1cc(C=C2C(=O)N(C)C(=S)N(C)C2=O)c(C)n1C1CCCC1
EC50 [1]: 189 µM (active) | EC50 [2]: 129 µM (active)

Cc1sc(-n2c(C)cc(C=C3C(=O)NC(=O)NC3=O)c2C)c(C#N)c1C
EC50 [1]: > 300 µM (not active) | EC50 [2]: > 300 µM (not active)

N#Cc1c(N)nc(SCc2ccccc2)c(C#N)c1-c1ccco1
EC50 [1]: > 300 µM (not active) | EC50 [2]: > 300 µM (not active)

Cc1ccnn1CC(=O)N/N=C/c1c[nH]nc1-c1ccccc1
EC50 [3]: > 112 µM (not active) | EC50 [4]: > 112 µM (not active)

COc1ccc(CN2CCCC(C(=O)c3ccc(Cl)cc3)C2)cc1Cn1cccn1 (configuration not stated)
EC50 [5]: > 120 µM (not active) | EC50 [6]: > 120 µM (not active) | EC50 [7]: > 120 µM (not active)

CC(=O)N(Cc1c(C#N)c2ccccc2n1C)c1ccccc1
EC50 [3]: > 112 µM (not active) | EC50 [4]: > 112 µM (not active)

COc1cc(C2C(C#N)=C(N)OC3=C2C(=O)CC(C)(C)C3)cc2c1OCO2 (configuration not stated)
EC50 [1]: > 300 µM (not active) | EC50 [2]: > 300 µM (not active)

COc1cccc(C(=O)c2cc3ccc(O)cc3oc2=O)c1
EC50 [3]: 0.571 µM (active) | EC50 [4]: 1.28 µM (active)

CCOC(=O)N1CCN(S(=O)(=O)c2ccc(C(=O)Nc3ccc(F)cc3F)cc2)CC1
EC50 [5]: 10.9 µM (active) | EC50 [6]: > 120 µM (not active) | EC50 [7]: 7.91 µM (active) | AC50 (Cytochrome P450 2C19): 25.1 µM (inconclusive) | AC50 (Cytochrome P450 1A2): 6.31 µM (inconclusive) | AC50 (Cytochrome P450 3A4): 14.1 µM (inconclusive)

COc1ccc(-c2cc(C(F)(F)F)nc(NCc3cccs3)n2)cc1
EC50 [8]: 3.73 µM (active) | EC50 (Streptokinase A): 13.8 µM (active) | EC50 [9]: 2.19 µM (active) | EC50 [10]: > 60 µM (not active) | EC50 (Streptococcus): > 150 µM (not active)

O=C(COC(=O)c1ccc(Cl)c(S(=O)(=O)NCc2ccccc2)c1)NCC1CCCO1 (configuration not stated)
EC50 [3]: > 112 µM (not active) | EC50 [4]: > 112 µM (not active)

CC(N)Cc1ccccc1Sc1ccc(O)cc1 (configuration not stated)
EC50 [3]: > 112 µM (not active) | EC50 [4]: > 112 µM (not active) | AC50 (Cytochrome P450 2C9): 17.8 µM (inconclusive)

Cc1ccc(-c2cc(N)n(Cc3ccc(Cl)cc3)n2)cc1
EC50 [3]: > 112 µM (not active) | EC50 [4]: > 112 µM (not active)

CC1=C(C#N)C(=O)N(C)C(=O)/C1=C\NNc1ccc(C)c(C)c1
EC50 [1]: > 300 µM (not active) | EC50 [2]: 40.6 µM (active)

COc1ccc(-n2nc3c(=O)[nH][nH]c3cc2=O)cc1
EC50 [1]: 13.1 µM (active) | EC50 [2]: 3.67 µM (active)

Cc1ccc(S(=O)(=O)NNC(=O)c2ccccc2-n2cccc2)cc1
EC50 [5]: > 120 µM (not active) | EC50 [6]: > 120 µM (not active) | EC50 [7]: > 120 µM (not active)

N#C/C(=N\Nc1ccc(Cl)cc1)C(=O)c1ccsc1
EC50 [1]: 81.6 µM (active) | EC50 [2]: 10.8 µM (active)

O=C(Nc1ccc2oc(-c3ccccc3)nc2c1)C1CCCO1 (configuration not stated)
EC50 [3]: 70.4 µM (active) | EC50 [4]: 25.1 µM (active)

O=Cc1cn(Cc2ccc(F)cc2Cl)c2ccccc12
EC50 [5]: 16.2 µM (active) | EC50 [6]: 16.8 µM (active) | EC50 [7]: 12.4 µM (active)

Cc1ccccc1C(=O)Oc1cccc(Nc2ncnc3ccccc23)c1
EC50 [8]: 5.76 µM (active) | EC50 (Streptokinase A): 34.6 µM (active) | EC50 (Streptococcus): > 150 µM (not active)

CC(=O)N/C=C1\C(=O)N(C)C(=O)C(C#N)=C1C
EC50 [1]: 36.1 µM (active) | EC50 [2]: 34.9 µM (active)

Cc1csc(NC(=O)c2cc3c(s2)CCCCC3)n1
EC50 [6]: 2.57 µM (active) | EC50 [7]: 3.58 µM (active)

CC(C)(C)C(Cn1ccnc1)NC(=O)c1ccc2nc(C3CC3)oc2c1 (configuration not stated)
EC50 [3]: > 112 µM (not active) | EC50 [4]: > 112 µM (not active)
